How the values were obtained:
[1] = system: astrocytes; assay: Injury of incubated astrocytes by 3-NPA, neutron red assay; format: cell-based, rat; details: average ± SE, after 3 days
Protocol: (§1) Isolation and incubation of astrocytes were conducted according to the method as described in Neuroscience, 87: […], 1998. Thus, cerebral cortex of a fetal rat was removed, from which astrocytes were separated with trypsin treatment at 37° C. for 20 minutes and incubated on a 24 well culture dish containing DMEM media+10% FBS under 5% CO2/air atmosphere at 37° C.
(§2) The injury of incubated astrocytes was induced by replacing the medium with a serum-free DMEM medium (serum-free group) or adding 6 mM of a metabolic inhibitor, 3-nitropropionic acid (3-NPA), to the medium (3-NPA group). The serum-free group and the 3-NPA group were divided into two sub-groups, respectively. To one sub-group of each group, 10 μg/ml of melatonin was added to the medium.
(§3) The number of the alive astrocytes was counted according to the neutron red assay after 3 days from the incubation in the 3-NPA group or according to the MTT (3-(4,5-dimethyl-thiozolyl)-2,5-diphenyl-tetrazolium bromide) assay after 10 days from the replacement of the medium. The test of significance was conducted by ANOVA.

[2] = system: astroglia; assay: GFAP staining of brain specimens after brain ischemia (middle cerebral artery plug, 1 h, recanalization); format: in vivo, rat; details: 11 days after onset of ischemia, 6 mg/kg melatonin for 10 days, versus non-melatonin group
Text: Eight to ten-week-old Wister male rats having the body weight of 250 to 300 g were used.
Under halothane anesthesia, a 24 G plug was inserted from a right external carotid artery of each rat so as to arrive to an origin of its middle cerebral artery of Willis's circle through its internal carotid artery. Immediately the anesthesia was stopped and the rat was dehypnotized. After one hour, the plug was taken out under halothane anesthesia, thereby a blood flow was recanalized.
After 11 days from an onset of brain ischemia, the brain of each rat was fixed with an aqueous 4% paraformaldehyde solution to prepare a brain specimen. Then, the brain specimen was stained according to the standard ABC method using an anti-GFAP antibody (GFAP staining; astroglia were stained)
Ischemic rats in Example 1 were divided into two groups. In the first group (non-melatonin administration group), a physiological saline solution was injected to a stomach of each rat using a sound for 10 days from the first day (24 hours after the recanalization of the blood flow). In the second group (melatonin administration group), a melatonin-containing physiological saline solution was similarly administered in an amount of 6 mg of melatonin per kg of rat. […]

[3] = system: CA1 hippocampal neurons; details: intraperitoneally, especially prior to cerebral ischemia or during recanalization; cited from earlier work
[4] = system: cheek pouch of a hamster; details: cited from earlier work
[5] = system: production of NO in brain; details: after transient ischemia/recirculation; cited from earlier work
[6] = system: ischemic or histamine-induced paw edema; details: various antioxidants including melatonin, together with dexamethasone; cited from earlier work
[7] = system: acute pancreatitis (pancreatic edema) induced by cerulein; details: rats; cited from earlier work
[8] = system: astrocytes; assay: Injury of incubated astrocytes by serum-free medium, MTT assay; format: cell-based, rat; details: average ± SE, serum-free DMEM + 10 μg/ml melatonin, after 10 days
Protocol: as §1, §2, §3

[9] = system: neurons; assay: MAP-2 staining of brain specimens after brain ischemia; format: in vivo, rat; details: 6 mg/kg melatonin for 10 days, versus non-melatonin group
[10] = system: blood-brain barrier; assay: IgG diapedesis area from blood vessel after brain ischemia (anti-IgG staining, NIH imaging); format: in vivo, rat; details: average ± SE; 6 mg/kg melatonin into stomach for 10 days from 24 hours after recanalization; 11 rats
Text: Eight to ten-week-old Wister male rats having the body weight of 250 to 300 g were used. Under halothane anesthesia, a 24 G plug was inserted from a right external carotid artery of each rat so as to arrive to an origin of its middle cerebral artery of Willis's circle through its internal carotid artery. Immediately the anesthesia was stopped and the rat was dehypnotized. After one hour, the plug was taken out under halothane anesthesia, thereby a blood flow was recanalized. Ischemic rats in Example 1 were divided into two groups. In the first group (non-melatonin administration group), a physiological saline solution was injected to a stomach of each rat using a sound for 10 days from the first day (24 hours after the recanalization of the blood flow). In the second group (melatonin administration group), a melatonin-containing physiological saline solution was similarly administered in an amount of 6 mg of melatonin per kg of rat.

[11] = system: carrageenan-induced inflammatory paw swelling; details: rats; cited from earlier work

SMILES | number of astrocytes ([1]; 6 mM 3-NPA alone) | number of astrocytes ([1]; 6 mM 3-NPA + 10 μg/ml melatonin, neutral red assay) | falling out of astroglia in ischemic core area and gliosis in penumbra area [2] | protection of CA1 hippocampal neurons from ischemic injury [3] | edema caused by ischemia-reperfusion of microcirculation ([4]; hamster cheek pouch) | increase of permeability of capillaries caused by free radicals ([4]; topical exposure to hypoxanthine-xanthine oxidase) | production of NO in brain [5] | suppression by dexamethasone of ischemic or histamine-induced paw edema [6] | acute pancreatitis (pancreatic edema) induced by cerulein [7] | number of astrocytes [8] | number of the alive neurons [9] | IgG diapedesis area, cerebral cortex [10] | IgG diapedesis area, corpus striatum [10] | carrageenan-induced inflammatory paw swelling [11]
O=C(O)CC[N+](=O)[O-] [3-NPA, 3-nitropropionic acid] | 50 ± 5 % of control | – | – | – | – | – | – | – | – | – | – | – | – | –
COc1ccc2[nH]cc(CCNC(C)=O)c2c1 [melatonin, N-[2-(5-methoxy-1H-indol-3-yl)ethyl]acetamide] | – | 63 ± 4 % of control | reduced | protects | reduces edema | reduces the increase of permeability | inhibits | enhance or prolong | reduces an acute pancreatitis | 48 ± 4 % of control | higher | 5.5 ± 4.5 mm^2 | 7.2 ± 4.0 mm^2 | suppresses

From patent US20070098777A1, “Pharmaceutical or Food Composition for Treatment or Prevention of Brain Edema” (AJINOMOTO CO., INC., priority 2000, published 2007)
